Results from US20090075974A1, “AGENT FOR PROPHYLAXIS AND TREATMENT OF PANCREATITIS” (UMN Pharma Inc., priority 2005, published 2009).
Where two headings read alike, the source gives them in different places.

How the values were obtained:
5-HT2C receptor = target: T1, 5-HT2C receptor (Homo sapiens, UniProt P28335); details: literature values, cited from earlier work
T1 construct: expressed in transfected cells; host or cells: HEK-293 (membrane fractions)
T1 sequence (P28335 33-458): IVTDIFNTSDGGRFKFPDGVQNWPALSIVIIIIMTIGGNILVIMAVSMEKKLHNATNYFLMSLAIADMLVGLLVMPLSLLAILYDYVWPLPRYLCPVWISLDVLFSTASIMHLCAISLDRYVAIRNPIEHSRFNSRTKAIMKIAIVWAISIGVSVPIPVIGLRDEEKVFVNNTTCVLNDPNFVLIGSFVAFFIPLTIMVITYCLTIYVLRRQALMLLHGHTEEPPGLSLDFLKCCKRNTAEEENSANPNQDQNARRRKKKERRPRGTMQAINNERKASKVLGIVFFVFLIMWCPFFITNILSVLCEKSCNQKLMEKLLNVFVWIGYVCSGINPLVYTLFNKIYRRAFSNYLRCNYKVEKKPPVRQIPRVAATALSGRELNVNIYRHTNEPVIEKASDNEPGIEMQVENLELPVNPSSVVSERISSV

[1] = test system: mouse with cerulein-induced pancreatitis; test: Cerulein-induced acute pancreatitis in mouse: amylase and lipase activity in plasma; type: in vivo; details: for inhibition rate of amylase activity: Example 2, FIG. 2, drug 3.2 mg/Kg; for effect on amylase in blood of mice administered with cerulein / effect on lipase in blood of mice administered with cerulein: Example 1, FIG. 1, under the dorsal skin 15 min before first cerulein, ketanserin 3.2 mg/Kg
Description: Receptor subtypes involved in the onset of pancreatitis were examined with the use of antagonists of 5-HT2A receptor, 5-HT2B receptor, and 5-HT2C receptor. A mouse having acute pancreatitis induced by excessive administration of cerulein was used as an animal model. This model is not affected by food consumption, which is different from CDE pancreatitis, and thus it is possible to obtain constant pathologic features and analyze data more accurately.
An aqueous solution of cerulein (0.05 mg/Kg) was administered to a five-week-old mouse every one hour five times by hypodermic injection. Each 5-HT2 antagonist suspended in a solvent (0.5% methylcellulose in saline) was administered under the dorsal skin 15 minutes before the first administration of cerulein. […] Further, only the solvent was administered to the control group (group administered with cerulein alone) under the dorsal skin. One hour after the final administration, blood was collected, and amylase activity and lipase activity in the plasma were determined.
Effects of various 5-HT2A antagonists on amylase activity and lipase activity in plasma of cerulein-induced pancreatic mice were examined. […] Then the amylase activity and the lipase activity in plasma were determined.
Effects of various 5-HT2 antagonists on amylase activity and lipase activity in plasma of cerulein-induced pancreatic mice were examined. […] Then the amylase activity and the lipase activity in plasma were determined.

5-HT2B receptor = target: T2, 5-HT2B receptor (Homo sapiens, UniProt P41595); details: literature values, cited from earlier work
T2 construct: expressed in transfected cells; host or cells: CHO-K1 (membrane fractions)
T2 sequence (P41595 whole entry): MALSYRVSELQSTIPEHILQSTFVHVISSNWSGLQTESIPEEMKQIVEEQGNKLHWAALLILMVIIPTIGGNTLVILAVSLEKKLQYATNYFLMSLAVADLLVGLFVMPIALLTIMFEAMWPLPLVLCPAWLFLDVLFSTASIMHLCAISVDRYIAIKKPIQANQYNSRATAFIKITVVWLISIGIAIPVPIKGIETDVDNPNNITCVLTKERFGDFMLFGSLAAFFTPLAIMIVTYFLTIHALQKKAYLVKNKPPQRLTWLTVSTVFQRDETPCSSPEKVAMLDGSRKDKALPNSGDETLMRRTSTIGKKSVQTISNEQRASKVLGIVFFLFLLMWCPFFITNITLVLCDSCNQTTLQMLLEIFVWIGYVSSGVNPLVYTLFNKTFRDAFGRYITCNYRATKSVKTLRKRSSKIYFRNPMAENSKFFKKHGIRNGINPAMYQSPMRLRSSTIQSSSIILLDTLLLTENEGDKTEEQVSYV

[2] = plasma, cerulein-induced pancreatitis mouse
[3] = Bonhaus et al. (1995), second block of Table 1

Row | Compound | inhibition rate of amylase activity [1, 2] [%] | effect on amylase in blood of mice administered with cerulein [1] | effect on lipase in blood of mice administered with cerulein [1] | also measured
1 | O=C1NCN(c2ccccc2)C12CCN(CCCOc1ccc(F)cc1)CC2 [AMI-193] | 17 |  |  | 5-HT2C pKi ± SEM (5-HT2C receptor; Knight et al. (2004)): 5.81 ± 0.16
2 | OC(c1ccccc1)C1CCN(CCc2ccccc2)CC1 (stereo not drawn) [MDL11939] | −4 |  |  | 
3 | CN1C[C@H](CNC(=O)OCc2ccccc2)C[C@@H]2c3cccc4c3c(cn4C)C[C@H]21 [Metergoline, metergoline] |  |  |  | inhibition rate of amylase ([1]; Example 3, FIG. 3, drug 3.2 mg/kg, plasma, cerulein-induced pancreatitis mouse): 30%
4 | Cc1cc(NC(=O)Nc2ccc3c(ccn3C)c2)sn1 [SB204741] |  | didn't show any effect | didn't show any effect | 5-HT2B pKi ± SEM (5-HT2B receptor; [3]): 7.1 ± 0.08; 5-HT2B pKi ± SEM (5-HT2B receptor; Knight et al. (2004)): 6.90 ± 0.27
5 | Cc1cc2c(cc1Cl)N(C(=O)Nc1ccc(Oc3cccnc3C)nc1)CC2 [SB242084] |  | didn't show any effect | didn't show any effect | 
6 | O=C(c1ccc(F)cc1)C1CCN(CCn2c(=O)[nH]c3ccccc3c2=O)CC1 [ketanserin] | 37 | significantly decreased | significantly decreased | 
7 | Cc1nc2n(c(=O)c1CCN1CCC(c3noc4cc(F)ccc34)CC1)CCCC2 [risperidone] | 52 |  |  | 
8 | O=C(CCCN1CCC2(CC1)C(=O)NCN2c1ccccc1)c1ccc(F)cc1 [spiperone] |  |  |  | 5-HT2C pKi ± SEM (5-HT2C receptor; [3]): <6.00
